Where a name gives a salt, the structure may show the parent alone.
Tests used:
Assay type in all cases: binding
[1] = biological target: T1, Recombinant human integrin αvβ1 (Homo sapiens, UniProt P05556+P06756); assay: Solid Phase Receptor Assay (SPRA) for αVβ1 function; conditions: plate-bound human fibronectin
T1 construct: purchased R&D Systems 6579-AV
Method: B. Solid Phase Receptor Assay (SPRA) for αVβ1 Function
Wells were washed 3 times with 150 μL TBS+ and then 150 μL of blocking buffer (TBS+ with 1% bovine serum albumin, Sigma A7906) was added. The plate was incubated for 1 hr at 37° C. and then washed 3× with TBS+ buffer. […] Compounds were diluted to 20 μM and 1 μL was added to each well of the plate according to a standard template with each sample repeated in triplicate. After incubation for two hours at room temperature, the plate was washed 3× with 150 μL of TBS+ buffer. To each well, 50 μL of biotinylated anti-αV antibody (R&D Systems, BAF1219) at 1 μg/mL in TBS+/0.1% BSA were added and the plate covered and incubated for 1 hr at room temperature. After washing the plate 3× with 150 μL of TBS+ buffer, 50 μL of streptavidin-conjugated horseradish peroxidase (R&D Systems, DY998) diluted in TBS+ blocking buffer were added to the wells and the plate incubated for 20 min at room temperature. The plate was washed 3× with TBS+ buffer followed by 50 μL of TMB substrate (Sigma, T4444) added to each well in the dark and the plate incubated for 25 min at room temperature. 25 μL of 1.0 M phosphoric acid was added as a stop solution and the plates were read at 450 nm using a Spectramax plate reader.

[2] = biological target: T2, Recombinant human integrin αVβ3 (Homo sapiens, UniProt P05106+P06756); assay: Solid Phase Receptor Assay for αVβ3 function; conditions: plate-bound human vitronectin; read-out: αVβ3 SPRA IC50
T2 construct: purchased R&D Systems 3050-AV
Method: C. […] Wells were washed 3 times with 150 μL TBS+ and then 150 μL of blocking buffer (TBS+ with 1% bovine serum albumin, Sigma A7906) was added. The plate was incubated for 1 hr at 37° C. and then washed 3× with TBS+ buffer. […] Compounds were diluted to 20 μM and then 1 μL was added to each well of the plate according to a standard template with each sample repeated in triplicate. After incubation for two hours at room temperature, the plate was washed 3× with 150 μL of TBS+ buffer. To each well, 50 μL of biotinylated anti-αV antibody (R&D Systems, BAF1219) at 0.5 μg/mL in TBS+/0.1% BSA were added and the plate covered and incubated for 1 hr at room temperature. After washing the plate 3× with 150 μL of TBS+ buffer, 50 μL of streptavidin-conjugated horseradish peroxidase (R&D Systems, DY998) diluted in TBS+ blocking buffer were added to the wells and the plate incubated for 20 min at room temperature. The plate was washed 3× with TBS+ buffer followed by 50 μL of TMB substrate (Sigma, T4444) added to each well in the dark and the plate was incubated for 25 min at room temperature. 25 μL of 1.0 M phosphoric acid was added as a stop solution and the plates were read at 450 nm using a Spectramax plate reader.

[3] = biological target: T3, Recombinant human integrin αVβ8 (Homo sapiens, UniProt P06756+P26012); assay: Solid Phase Receptor Assay for αVβ8 function; conditions: plate-bound human LAP; read-out: αVβ8 SPRA IC50
T3 construct: purchased R&D Systems 4135-AV
Method: F. Solid Phase Receptor Assay (SFRA) for αVβ8 Function
Wells were washed 3 times with 150 μL TBS+ and then 150 μL of blocking buffer (TBS+ with 1% bovine serum albumin, Sigma A7906) was added. The plate was incubated for 1 hr at 37° C. and then washed 3× with TBS+. […] Compounds were diluted to 20 μM and 1 μL was added to each well of the plate according to a standard template with each sample repeated in triplicate. After incubation for two hours at room temperature, the plate was washed 3× with 150 μL of TBS+. To each well, 50 μL of biotinylated anti-αV antibody (R&D Systems, BAF1219) at 1 μg/mL in TBS+/0.1% BSA were added and the plate was covered and incubated for 1 hr at room temperature. After washing the plate 3× with 150 μL of TBS+ buffer, 50 μL of streptavidin-conjugated horseradish peroxidase (R&D Systems, DY998) diluted in TBS+ blocking buffer were added to the wells and the plate incubated for 20 min at room temperature. The plate was washed 3× with TBS+ followed by 50 μL of TMB substrate (Sigma T4444) added to each well in the dark and the plate incubated for 10 min at room temperature. 25 μL of 1.0 M phosphoric acid was added as a stop solution and the plates were read at 450 nm using a Spectramax plate reader.

[4] = biological target: T4, Recombinant human integrin α5β1 (Homo sapiens, UniProt P05556+P08648); assay: Solid Phase Receptor Assay (SPRA) for α5β1 function; conditions: plate-bound human fibronectin
T4 construct: purchased R&D Systems 3230-A5
Method: A. Solid Phase Receptor Assay (SPRA) for α5β1 Function
Wells were washed 3 times with 150 μL TBS+ and then 150 μL of blocking buffer (TBS+ with 1% bovine serum albumin, Sigma A7906) was added. The plate was incubated for 1 hr at 37° C. and then washed 3× with TBS+ buffer. […] Compounds were diluted to 20 μM and then 1 μL was added to each well of the plate according to a standard template with each sample repeated in triplicate. After incubation for two hours at room temperature, the plate was washed 3× with 150 μL of TBS+ buffer. To each well, 50 μL of biotinylated anti-α5 antibody (R&D Systems, BAF1864) at 0.5 μg/mL in TBS+/0.1% BSA were added and the plate covered and incubated for 1 hr at room temperature. After washing the plate 3× with 150 μL of TBS+ buffer, 50 μL of streptavidin-conjugated horseradish peroxidase (R&D Systems, DY998) diluted in TBS+ blocking buffer were added to the wells and the plate incubated for 20 min at room temperature. The plate was washed 3× with TBS+ buffer followed by 50 μL of room temperature TMB substrate (Sigma, T4444) added to each well in the dark and the plate incubated for 25 min at room temperature. 25 μL of 1.0 M phosphoric acid was added as a stop solution and the plates were read at 450 nm using a Spectramax plate reader.

T2 sequence (P06756 31-992 limits assumed): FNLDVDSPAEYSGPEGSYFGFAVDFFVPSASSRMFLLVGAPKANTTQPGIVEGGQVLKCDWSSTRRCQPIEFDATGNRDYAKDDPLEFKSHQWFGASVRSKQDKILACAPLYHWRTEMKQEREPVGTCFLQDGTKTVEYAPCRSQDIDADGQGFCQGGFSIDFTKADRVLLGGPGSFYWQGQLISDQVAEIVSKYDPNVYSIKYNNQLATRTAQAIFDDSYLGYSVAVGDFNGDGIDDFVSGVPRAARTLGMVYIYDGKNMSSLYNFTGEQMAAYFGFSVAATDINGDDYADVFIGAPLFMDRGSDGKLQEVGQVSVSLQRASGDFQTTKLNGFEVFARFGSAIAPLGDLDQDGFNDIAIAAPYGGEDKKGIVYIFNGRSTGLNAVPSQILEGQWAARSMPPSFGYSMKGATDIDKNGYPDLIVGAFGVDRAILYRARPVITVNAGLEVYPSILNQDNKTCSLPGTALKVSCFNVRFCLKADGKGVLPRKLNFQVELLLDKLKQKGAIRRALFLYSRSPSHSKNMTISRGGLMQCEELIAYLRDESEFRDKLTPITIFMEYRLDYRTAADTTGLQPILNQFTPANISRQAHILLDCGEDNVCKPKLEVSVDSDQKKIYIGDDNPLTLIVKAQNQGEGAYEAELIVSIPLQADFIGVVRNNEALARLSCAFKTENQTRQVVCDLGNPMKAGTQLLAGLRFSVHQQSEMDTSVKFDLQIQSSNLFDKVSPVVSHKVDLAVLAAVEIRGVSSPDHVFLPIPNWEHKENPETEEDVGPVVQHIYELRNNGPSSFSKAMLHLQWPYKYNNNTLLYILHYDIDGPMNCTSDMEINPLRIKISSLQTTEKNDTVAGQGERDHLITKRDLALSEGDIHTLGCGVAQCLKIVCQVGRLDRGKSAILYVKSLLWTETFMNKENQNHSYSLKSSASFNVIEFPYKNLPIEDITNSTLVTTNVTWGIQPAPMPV
T2 sequence (P05106 27-718 limits assumed): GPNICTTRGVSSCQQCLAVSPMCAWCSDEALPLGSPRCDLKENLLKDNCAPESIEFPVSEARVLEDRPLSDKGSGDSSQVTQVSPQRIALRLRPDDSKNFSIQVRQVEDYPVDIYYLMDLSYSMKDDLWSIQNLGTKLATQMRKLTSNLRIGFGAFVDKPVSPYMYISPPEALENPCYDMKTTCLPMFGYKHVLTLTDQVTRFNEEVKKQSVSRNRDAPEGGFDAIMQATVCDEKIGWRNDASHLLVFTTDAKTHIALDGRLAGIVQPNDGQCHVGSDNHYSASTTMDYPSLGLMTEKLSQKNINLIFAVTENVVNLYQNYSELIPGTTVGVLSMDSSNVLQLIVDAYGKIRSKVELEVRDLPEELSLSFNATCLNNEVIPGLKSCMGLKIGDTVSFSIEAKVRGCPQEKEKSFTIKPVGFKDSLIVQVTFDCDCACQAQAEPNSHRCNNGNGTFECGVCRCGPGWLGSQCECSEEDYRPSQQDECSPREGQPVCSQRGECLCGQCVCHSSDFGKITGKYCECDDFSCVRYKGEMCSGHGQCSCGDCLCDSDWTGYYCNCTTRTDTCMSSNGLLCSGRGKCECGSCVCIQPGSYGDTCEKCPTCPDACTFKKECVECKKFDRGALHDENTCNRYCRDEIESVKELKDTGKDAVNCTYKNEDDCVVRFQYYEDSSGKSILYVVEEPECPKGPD
T1 sequence (P06756 31-992 limits assumed): as the sequence (P06756 31-992 limits assumed) above
T1 sequence (P05556 21-728 limits assumed): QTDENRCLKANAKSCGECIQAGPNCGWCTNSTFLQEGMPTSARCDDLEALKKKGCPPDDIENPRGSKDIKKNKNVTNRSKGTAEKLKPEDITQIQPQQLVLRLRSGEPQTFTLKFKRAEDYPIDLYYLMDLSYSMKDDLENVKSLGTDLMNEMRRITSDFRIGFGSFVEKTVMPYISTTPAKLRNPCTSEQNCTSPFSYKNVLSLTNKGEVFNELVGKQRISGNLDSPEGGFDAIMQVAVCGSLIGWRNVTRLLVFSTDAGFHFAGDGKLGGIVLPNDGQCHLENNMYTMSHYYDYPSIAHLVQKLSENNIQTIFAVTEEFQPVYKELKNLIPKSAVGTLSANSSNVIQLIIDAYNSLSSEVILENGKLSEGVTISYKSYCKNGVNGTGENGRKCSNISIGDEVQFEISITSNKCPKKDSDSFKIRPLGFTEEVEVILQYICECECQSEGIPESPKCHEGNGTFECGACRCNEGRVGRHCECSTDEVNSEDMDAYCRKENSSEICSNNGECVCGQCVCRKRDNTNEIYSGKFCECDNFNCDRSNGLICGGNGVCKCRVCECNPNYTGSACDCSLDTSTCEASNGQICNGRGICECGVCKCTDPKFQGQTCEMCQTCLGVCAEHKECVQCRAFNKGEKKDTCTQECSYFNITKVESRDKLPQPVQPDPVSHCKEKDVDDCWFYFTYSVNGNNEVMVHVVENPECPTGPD
T3 sequence (P06756 31-992 limits assumed): as the sequence (P06756 31-992 limits assumed) above
T3 sequence (P26012 43-684 limits assumed): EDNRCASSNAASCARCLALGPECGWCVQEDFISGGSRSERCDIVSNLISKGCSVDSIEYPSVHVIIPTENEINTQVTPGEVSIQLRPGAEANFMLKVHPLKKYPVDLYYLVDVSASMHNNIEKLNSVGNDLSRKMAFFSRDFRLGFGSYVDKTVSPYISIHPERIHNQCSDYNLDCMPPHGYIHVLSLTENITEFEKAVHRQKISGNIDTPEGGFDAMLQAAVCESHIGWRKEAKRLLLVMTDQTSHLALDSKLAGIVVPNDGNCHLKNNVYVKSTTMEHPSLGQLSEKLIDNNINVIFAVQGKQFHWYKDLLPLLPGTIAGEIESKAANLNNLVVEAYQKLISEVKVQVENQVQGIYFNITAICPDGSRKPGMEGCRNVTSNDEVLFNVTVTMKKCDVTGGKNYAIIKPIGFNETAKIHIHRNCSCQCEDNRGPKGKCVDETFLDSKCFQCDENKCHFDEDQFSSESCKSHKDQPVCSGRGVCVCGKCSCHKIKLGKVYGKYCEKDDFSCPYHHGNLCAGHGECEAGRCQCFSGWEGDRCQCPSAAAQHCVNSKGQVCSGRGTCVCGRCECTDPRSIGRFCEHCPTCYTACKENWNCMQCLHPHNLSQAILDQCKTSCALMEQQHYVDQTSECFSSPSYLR
T4 sequence (P08648 42-995 limits assumed): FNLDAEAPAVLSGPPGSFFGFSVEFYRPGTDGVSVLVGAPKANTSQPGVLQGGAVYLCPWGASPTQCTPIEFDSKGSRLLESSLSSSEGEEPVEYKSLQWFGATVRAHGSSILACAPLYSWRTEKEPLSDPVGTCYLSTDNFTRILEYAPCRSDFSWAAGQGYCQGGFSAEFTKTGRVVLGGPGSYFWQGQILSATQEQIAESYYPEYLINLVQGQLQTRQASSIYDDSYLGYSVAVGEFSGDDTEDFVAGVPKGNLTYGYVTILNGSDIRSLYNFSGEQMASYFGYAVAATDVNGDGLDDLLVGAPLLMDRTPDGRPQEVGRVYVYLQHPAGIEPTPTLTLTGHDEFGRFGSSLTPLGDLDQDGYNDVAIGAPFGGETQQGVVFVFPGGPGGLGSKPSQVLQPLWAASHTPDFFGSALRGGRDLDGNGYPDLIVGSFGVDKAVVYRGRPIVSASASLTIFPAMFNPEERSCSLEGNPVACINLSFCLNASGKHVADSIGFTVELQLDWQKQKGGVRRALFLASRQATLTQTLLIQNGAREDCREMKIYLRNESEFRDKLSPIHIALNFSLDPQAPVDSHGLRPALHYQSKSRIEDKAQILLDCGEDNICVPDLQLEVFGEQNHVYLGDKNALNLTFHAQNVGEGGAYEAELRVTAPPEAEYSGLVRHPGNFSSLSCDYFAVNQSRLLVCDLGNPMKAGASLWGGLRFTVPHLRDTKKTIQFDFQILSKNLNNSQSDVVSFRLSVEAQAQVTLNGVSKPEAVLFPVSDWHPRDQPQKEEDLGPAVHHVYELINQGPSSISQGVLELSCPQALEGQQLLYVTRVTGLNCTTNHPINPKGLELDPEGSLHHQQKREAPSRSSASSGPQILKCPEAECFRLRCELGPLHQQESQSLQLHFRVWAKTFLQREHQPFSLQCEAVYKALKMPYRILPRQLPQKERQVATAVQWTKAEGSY
T4 sequence (P05556 21-728 limits assumed): as the sequence (P05556 21-728 limits assumed) above

Structure (SMILES)	IC50 [1]	IC50 [2]	IC50 [3]	IC50 [4]
COc1c(C(C)C)cc(C(CC(=O)O)Cc2cc(OCCc3ccc4c(n3)NCCC4)n(C)n2)cc1C(C)C (centres unmarked) [Example 25, 3-(3,5-diisopropyl-4-methoxy-phenyl)-4-[1-methyl-5-[2-(5,6,7,8-tetrahydro-1,8-naphthyridin-2-yl)ethoxy]pyrazol-3-yl]butanoic acid]	6 nM	37 nM	18 nM	2 nM
COc1ccc(C2CCOCC2)cc1C(CC(=O)O)Cc1csc(CCCc2ccc3c(n2)NCCC3)n1 (centres unmarked) [Example 43, 3-(2-methoxy-5-(tetrahydro-2H-pyran-4-yl)phenyl)-4-(2-(3-(5,6,7,8-tetrahydro-1,8-naphthyridin-2-yl)propyl)thiazol-4-yl)butanoic acid]	3 nM	520 nM	210 nM	65 nM
O=C(O)CC(Cc1cc(OCCc2ccc3c(n2)NCCC3)[nH]n1)c1cccc(F)c1 (centres unmarked) [CC2, reference compound]	19 nM	3.1 nM	680 nM	770 nM
COc1ccc(C(F)(F)F)cc1C(CC(=O)O)Cc1csc(CCCc2ccc3c(n2)NCCC3)n1 (centres unmarked) [Example 35, 3-[2-methoxy-5-(trifluoromethyl)phenyl]-4-[2-[3-(5,6,7,8-tetrahydro-1,8-naphthyridin-2-yl)propyl]thiazol-4-yl]butanoic acid]	5 nM	78 nM	51 nM	88 nM
COc1cc(C(CC(=O)O)Cc2cc(OCCc3ccc4c(n3)NCCC4)n(C)n2)cc(C23CC4CC(CC(C4)C2)C3)c1OC (centres unmarked) [Example 14, 3-[3-(1-adamantyl)-4,5-dimethoxy-phenyl]-4-[1-methyl-5-[2-(5,6,7,8-tetrahydro-1,8-naphthyridin-2-yl)ethoxy]pyrazol-3-yl]butanoic acid]	9 nM	9 nM	170 nM	47 nM
COc1c(C(C)(C)C)cc(C(CC(=O)O)Cc2cc(OCCc3ccc4c(n3)NCCC4)n(C)n2)cc1C(C)(C)C (centres unmarked) [Example 10, 3-(3,5-di-tert-butyl-4-methoxyphenyl)-4-(1-methyl-5-(2-(5,6,7,8-tetrahydro-1,8-naphthyridin-2-yl)ethoxy)-1H-pyrazol-3-yl)butanoic acid]	4 nM	410 nM	92 nM	15 nM
Cn1nc(CC(CC(=O)O)c2cc(C(C)(C)C)cc(C(C)(C)C#N)c2)cc1OCCc1ccc2c(n1)NCCC2 (centres unmarked) [Example 9, 3-[3-tert-butyl-5-(1-cyano-1-methyl-ethyl)phenyl]-4-[1-methyl-5-[2-(5,6,7,8-tetrahydro-1,8-naphthyridin-2-yl)ethoxy]pyrazol-3-yl]butanoic acid]	2 nM	38 nM	8 nM	1 nM
Cc1cc(C)n(-c2cccc(C(CC(=O)O)Cc3csc(CCc4ccc5c(n4)NCCC5)n3)c2)n1 (centres unmarked) [Example 38, 3-(3-(3,5-dimethyl-1H-pyrazol-1-yl)phenyl)-4-(2-(2-(5,6,7,8-tetrahydro-1,8-naphthyridin-2-yl)ethyl)thiazol-4-yl)butanoic acid]	15 nM	9 nM	2700 nM	420 nM
CC(C)(C)c1cc(C(CC(=O)O)Cc2cc(OCCc3ccc4c(n3)NCCC4)n(CC(F)(F)F)n2)cc(C(C)(C)C)c1 (centres unmarked) [Example 40, 3-(3,5-di-tert-butylphenyl)-4-(5-(2-(5,6,7,8-tetrahydro-1,8-naphthyridin-2-yl)ethoxy)-1-(2,2,2-trifluoroethyl)-1H-pyrazol-3-yl)butanoic acid trifluoroacetate]	3 nM	740 nM	30 nM	6 nM
CC(C)(C)c1cc(C(CC(=O)O)Cc2csc(CCCc3ccc4c(n3)NCCC4)n2)cc(C2(C(F)F)CC2)c1 (centres unmarked) [Example 30, 3-[3-tert-butyl-5-[1-(difluoromethyl)cyclopropyl]phenyl]-4-[2-[3-(5,6,7,8-tetrahydro-1,8-naphthyridin-2-yl)propyl]thiazol-4-yl]butanoic acid]	5 nM	720 nM	25 nM	30 nM
Cn1nc(CC(CC(=O)O)c2cc(C(C)(C)C)cc(C(C)(C)CO)c2)cc1OCCc1ccc2c(n1)NCCC2 (centres unmarked) [Example 7, 3-[3-tert-butyl-5-(2-hydroxy-1,1-dimethyl-ethyl)phenyl]-4-[1-methyl-5-[2-(5,6,7,8-tetrahydro-1,8-naphthyridin-2-yl)ethoxy]pyrazol-3-yl]butanoic acid]	3 nM	17 nM	18 nM	1 nM
COc1c(C(C)C)cc(C(CC(=O)O)Cc2csc(CCCc3ccc4c(n3)NCCC4)n2)cc1C(C)C (centres unmarked) [Example 26, 3-(3,5-diisopropyl-4-methoxy-phenyl)-4-[2-[3-(5,6,7,8-tetrahydro-1,8-naphthyridin-2-yl)propyl]thiazol-4-yl]butanoic acid]	8 nM	530 nM	38 nM	61 nM
Cn1nc(CC(CC(=O)O)c2cc3c(c(C(C)(C)C)c2)OCCO3)cc1OCCc1ccc2c(n1)NCCC2 (centres unmarked) [Example 16, 3-(8-(tert-butyl)-2,3-dihydrobenzo[b][1,4]dioxin-6-yl)-4-(1-methyl −5-(2-(5,6,7,8-tetrahydro-1,8-naphthyridin-2-yl)ethoxy)-1H-pyrazol-3-yl) butanoic acid]	5 nM	7 nM	41 nM	18 nM
Cn1nc(CC(CC(=O)O)c2cc(C(C)(C)C)cc(C(C)(C)C(F)(F)F)c2)cc1OCCc1ccc2c(n1)NCCC2 (centres unmarked) [Example 5, 3-(3-(tert-butyl)-5-(1,1,1-trifluoro-2-methylpropan-2-yl)phenyl)-4-(1-methyl-5-(2-(5,6,7,8-tetrahydro-1,8-naphthyridin-2-yl)ethoxy)-1H-pyrazol-3-yl) butanoic acid]	4 nM	140 nM	20 nM	2 nM

Reference: US20210284638A1 (Saint Louis University, priority 2018, published 2021)
